Source: patent publication US20100267561A1, “HERBICIDAL PYRIDAZINONE DERIVATIVES” (priority 2007, published 2010)

Experiments:
Experiment in all cases: Test B pre-/postemergence plant response
Assay type in all cases: in vivo
[1] = system: Italian ryegrass (Lolium multiflorum)
Outline: (§1)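 Visual scoring from 0 (no effect) to 100 (complete control) against untreated controls was done 13 to 15 days after greenhouse treatment. Chemicals were formulated in a surfactant-containing non-phytotoxic solvent and applied to soil preemergence or to 1- to 4-leaf (2-18 cm) plants postemergence.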

[2] = system: Russian thistle (Salsola iberica); settings: Preemergence
Outline: as §1

[3] = system: catchweed bedstraw (Galium aparine); settings: Preemergence
Outline: as §1

[4] = system: cocklebur (Xanthium strumarium)
Outline: as §1

[5] = system: common ragweed (Ambrosia elation)
Outline: as §1

corn (Zea mays) = system: corn (Zea mays)
Outline: as §1

[6] = system: eastern black (E.B.) nightshade (Solanum ptycanthum); settings: Preemergence
Outline: as §1

[7] = system: green foxtail (Setaria viridis)
Outline: as §1

[8] = system: lambsquarters (Chenopodium album)
Outline: as §1

[9] = system: morningglory (Ipomoea coccinea)
Outline: as §1

[10] = system: surinam grass (Brachiaria decumbens)
Outline: as §1

wild oat (Avena fatua) = system: wild oat (Avena fatua)
Outline: as §1

[11] = system: yellow nutsedge (Cyperus esculentus)
Outline: as §1

[12] = 8 g ai/ha, postemergence, 0-100 scale
[13] = 16 g ai/ha, postemergence, 0-100 scale
[14] = Postemergence, 31 g ai/ha, scale 0 to 100
[15] = Postemergence, 62 g ai/ha, scale 0 to 100, 0 no effect, 100 complete control
[16] = Preemergence, 8 g ai/ha, scale 0 to 100 (0 no effect, 100 complete control)
[17] = Preemergence, 31 g ai/ha, scale 0 to 100 (0 no effect, 100 complete control)
[18] = Preemergence, 62 g ai/ha, 0 to 100 scale, 0 no effect, 100 complete control
[19] = Preemergence, 16 g ai/ha, scale 0 to 100
[20] = 8 g ai/ha, scale 0 to 100 (0 no effect, 100 complete control)
[21] = 31 g ai/ha, scale 0 to 100 (0 no effect, 100 complete control)
[22] = 62 g ai/ha, 0 to 100 scale, 0 no effect, 100 complete control
[23] = Postemergence, 16 g ai/ha, scale 0 to 100

Cc1nn(C)c(=O)c(-n2nc(-c3ccc(Br)cc3)cc2C)c1O [Compound 81]
Ryegrass, Italian plant response rating [1, 12]: 85 | Ryegrass, Italian plant response rating [1, 13]: 90 | Plant response rating, Ryegrass, Italian [1, 14]: 100 | Plant response rating, Ryegrass, Italian [1, 15]: 100 | Ryegrass, Italian plant response rating [1, 16]: 70 | Plant response rating, Ryegrass, Italian [1, 17]: 100 | Plant response rating, Ryegrass, Italian [1, 18]: 100 | Ryegrass, Italian plant response rating [1, 19]: 100 | Russian Thistle plant response rating [2, 20]: 0 | Plant response rating, Russian Thistle [2, 21]: 0 | Plant response rating, Russian Thistle [2, 22]: 0 | Russian Thistle plant response rating ([2]; 16 g ai/ha, scale 0 to 100): 0 | Galium plant response rating [3, 20]: 0 | Plant response rating, Galium [3, 21]: 0 | Plant response rating, Galium [3, 22]: 0 | Galium plant response rating ([3]; 16 g ai/ha, scale 0 to 100): 0 | Cocklebur plant response rating [4, 12]: 0 | Plant response rating, Cocklebur [4, 23]: 0 | Plant response rating, Cocklebur [4, 14]: 0 | Plant response rating, Cocklebur [4, 15]: 0 | Cocklebur plant response rating [4, 16]: 0 | Plant response rating, Cocklebur [4, 17]: 0 | Plant response rating, Cocklebur [4, 18]: 0 | Cocklebur plant response rating [4, 19]: 0 | Ragweed plant response rating [5, 12]: 0 | Ragweed plant response rating [5, 13]: 0 | Plant response rating, Ragweed [5, 14]: 0 | Plant response rating, Ragweed [5, 15]: 20 | Ragweed plant response rating [5, 16]: 0 | Plant response rating, Ragweed [5, 17]: 0 | Plant response rating, Ragweed [5, 18]: 0 | Ragweed plant response rating [5, 19]: 0 | Corn plant response rating (corn (Zea mays); [12]): 45 | Plant response rating, Corn (corn (Zea mays); [23]): 100 | Plant response rating, Corn (corn (Zea mays); [14]): 100 | Plant response rating, Corn (corn (Zea mays); [15]): 100 | Corn plant response rating (corn (Zea mays); [16]): 65 | Plant response rating, Corn (corn (Zea mays); [17]): 98 | Plant response rating, Corn (corn (Zea mays); [18]): 100 | Corn plant response rating (corn (Zea mays); [19]): 70 | Nightshade, E. B. plant response rating [6, 20]: 0 | Plant response rating, Nightshade, E. B. [6, 21]: 0 | Plant response rating, Nightshade, E. B. [6, 22]: 50 | Nightshade, E. B. plant response rating ([6]; 16 g ai/ha, scale 0 to 100): 0 | Foxtail, Green plant response rating [7, 12]: 85 | Plant response rating, Foxtail, Green [7, 23]: 90 | Plant response rating, Foxtail, Green [7, 14]: 95 | Plant response rating, Foxtail, Green [7, 15]: 98 | Foxtail, Green plant response rating [7, 16]: 40 | Plant response rating, Foxtail, Green [7, 17]: 100 | Plant response rating, Foxtail, Green [7, 18]: 100 | Foxtail, Green plant response rating [7, 19]: 80 | Lambsquarters plant response rating [8, 12]: 0 | Lambsquarters plant response rating [8, 13]: 0 | Plant response rating, Lambsquarters [8, 14]: 0 | Plant response rating, Lambsquarters [8, 15]: 0 | Lambsquarters plant response rating [8, 16]: 0 | Plant response rating, Lambsquarters [8, 17]: 0 | Plant response rating, Lambsquarters [8, 18]: 0 | Lambsquarters plant response rating [8, 19]: 0 | Morningglory plant response rating [9, 12]: 0 | Morningglory plant response rating [9, 13]: 0 | Plant response rating, Morningglory [9, 14]: 0 | Plant response rating, Morningglory [9, 15]: 0 | Morningglory plant response rating [9, 16]: 0 | Plant response rating, Morningglory [9, 17]: 0 | Plant response rating, Morningglory [9, 18]: 100 | Morningglory plant response rating [9, 19]: 0 | Surinam Grass plant response rating [10, 12]: 90 | Surinam Grass plant response rating [10, 13]: 98 | Plant response rating, Surinam Grass [10, 14]: 100 | Plant response rating, Surinam Grass [10, 15]: 100 | Surinam Grass plant response rating [10, 16]: 60 | Plant response rating, Surinam Grass [10, 17]: 100 | Plant response rating, Surinam Grass [10, 18]: 100 | Surinam Grass plant response rating [10, 19]: 85 | Oat, Wild plant response rating (wild oat (Avena fatua); [12]): 80 | Oat, Wild plant response rating (wild oat (Avena fatua); [13]): 95 | Plant response rating, Oat, Wild (wild oat (Avena fatua); [14]): 100 | Plant response rating, Oat, Wild (wild oat (Avena fatua); [15]): 100 | Oat, Wild plant response rating (wild oat (Avena fatua); [16]): 45 | Plant response rating, Oat, Wild (wild oat (Avena fatua); [17]): 70 | Plant response rating, Oat, Wild (wild oat (Avena fatua); [18]): 85 | Oat, Wild plant response rating (wild oat (Avena fatua); [19]): 60 | Nutsedge, Yellow plant response rating [11, 12]: 0 | Nutsedge, Yellow plant response rating [11, 13]: 0 | Plant response rating, Nutsedge, Yellow [11, 14]: 0 | Plant response rating, Nutsedge, Yellow [11, 15]: 0 | Nutsedge, Yellow plant response rating [11, 16]: 0 | Plant response rating, Nutsedge, Yellow [11, 17]: 0 | Plant response rating, Nutsedge, Yellow [11, 18]: 0 | Nutsedge, Yellow plant response rating [11, 19]: 0
